# Numbers after ± are expanded uncertainties.
# How the values were obtained:
# [1] = Molar enthalpy of transition or fusion; conditions: Crystal; DSC
# [2] = Crystal
structure (smiles),measurement,setting,value
O=C1NC(=O)c2cc([N+](=O)[O-])ccc21 [4-nitrophthalimide],Molar enthalpy of transition or fusion,[1],8.27 ± 0.263 kcal/mol
same,mass density,"[2]; 298.15 K, 101.33 kPa, Buoyancy - hydrostatic balance",1594.7 ± 2.1 kg/m3
same,Normal melting temperature,[2]; DTA,201.56 ± 1.1 °C

# Reference: the NIST ThermoML archive (doi:10.1021/acs.jced.6b00230)
